Source: US20100056563A1, “NOVEL 1.8-NAPHTHYRIDINE COMPOUNDS” (priority 2007, published 2010)

Target: T1, FLAG-tagged full length PHD2 (Homo sapiens, UniProt Q9GZT9)
T1 construct: FLAG-tagged full length PHD2; FLAG; made in house; host or cells: baculovirus-infected Sf9 cells
Assay: HIF-PHD2 time resolved fluorescence inhibition assay (HIF-1α peptide hydroxylation, VHL complex detection)
Assay type: biochemical
Conditions: 0.2 μM 2-oxoglutarate, 0.5 μM HIF-1α peptide, 2 hr at room temperature
Protocol: To each well of a 96-well plate was added […] of test compound in DMSO and 20 μl of assay buffer (50 mM Tris pH 7.4/0.01% Tween-20/0.1 mg/ml bovine serum albumin/10 μM ferrous sulfate/1 mM sodium ascorbate/20 μg/ml catalase) containing 0.15 μg/ml FLAG-tagged full length PHD2 expressed in and purified from baculovirus-infected Sf9 cells. After a […] preincubation at room temperature, the enzymatic reactions were initiated by the addition of 4 μL of substrates (final concentrations of 0.2 μM 2-oxoglutarate and 0.5 μM HIF-1α peptide biotinyl-DLDLEMLAPYIPMDDDFQL). After 2 hr at room temperature, the reactions were terminated and signals were developed by the addition of a 25 μL quench/detection mix to a final concentration of 1 mM ortho-phenanthroline, 0.1 mM EDTA, 0.5 nM anti-(His)6 LANCE reagent (Perkin-Elmer Life Sciences), 100 nM AF647-labeled streptavidin (Invitrogen), and 2 μg/ml (His)6-VHL complex (S. Tan (2001) Protein Expr. Purif. 21, 224-234). The ratio of time resolved fluorescence signals at 665 and 620 nm was determined, and percent inhibition was calculated relative to an uninhibited control sample run in parallel.

T1 sequence (Q9GZT9 whole entry): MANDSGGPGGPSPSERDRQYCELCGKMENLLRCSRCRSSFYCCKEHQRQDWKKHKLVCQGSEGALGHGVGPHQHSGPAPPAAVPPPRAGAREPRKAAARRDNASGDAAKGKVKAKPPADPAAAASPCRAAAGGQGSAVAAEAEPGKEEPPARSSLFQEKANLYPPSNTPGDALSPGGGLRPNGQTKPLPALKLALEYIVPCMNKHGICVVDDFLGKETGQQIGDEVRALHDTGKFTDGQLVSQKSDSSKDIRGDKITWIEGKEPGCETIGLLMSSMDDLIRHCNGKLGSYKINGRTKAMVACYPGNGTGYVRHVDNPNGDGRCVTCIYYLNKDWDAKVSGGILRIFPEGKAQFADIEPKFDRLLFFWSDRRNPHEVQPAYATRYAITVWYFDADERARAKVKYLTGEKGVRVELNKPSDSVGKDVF

- IC50: 1.5 nM
SMILES: O=C(O)CNC(=O)c1c(O)c2cc(Cl)cnc2n(Cc2nc3ccccc3s2)c1=O [Example 40, ({[1-(1,3-Benzothiazol-2-ylmethyl)-6-chloro-4-hydroxy-2-oxo-1,2-dihydro-1,8-naphthyridin-3-yl]carbonyl}amino)acetic acid]
